# Assay results taken from PubChem BioAssay (NCI).
#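 GI50 marks 50% less growth. At the TGI there is no net growth.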
# Assays:
# Experiment in all cases: DTP human tumour cell line panel, 384-well format
# NCI-H460 NSCLC = test system: NCI-H460 NSCLC
# SK-MEL-5 melanoma = test system: SK-MEL-5 melanoma
# SNB-75 CNS = test system: SNB-75 CNS
# NCI/ADR-RES ovarian = test system: NCI/ADR-RES ovarian
# MCF7 breast = test system: MCF7 breast
# SK-OV-3 ovarian = test system: SK-OV-3 ovarian
# HOP-92 NSCLC = test system: HOP-92 NSCLC
# IGROV1 ovarian = test system: IGROV1 ovarian
# RPMI-8226 leukemia = test system: RPMI-8226 leukemia
# OVCAR-5 ovarian = test system: OVCAR-5 ovarian
# MDA-MB-435 melanoma = test system: MDA-MB-435 melanoma
# HOP-62 NSCLC = test system: HOP-62 NSCLC
# SNB-19 CNS = test system: SNB-19 CNS
compound,measurement,setting,value
O=S(=O)(c1ccc2c(c1)C(=NO)c1cc(S(=O)(=O)N3CCCCC3)ccc1-2)N1CCCCC1,GI50,NCI-H460 NSCLC,170 nM
same,TGI,NCI-H460 NSCLC,314 nM
same,GI50,SK-MEL-5 melanoma,184 nM
same,TGI,SK-MEL-5 melanoma,359 nM
same,GI50,SNB-75 CNS,184 nM
same,TGI,SNB-75 CNS,324 nM
same,GI50,NCI/ADR-RES ovarian,342 nM
same,TGI,NCI/ADR-RES ovarian,1140 nM
same,GI50,MCF7 breast,187 nM
same,TGI,MCF7 breast,334 nM
same,GI50,SK-OV-3 ovarian,169 nM
same,TGI,SK-OV-3 ovarian,308 nM
same,GI50,HOP-92 NSCLC,116 nM
same,TGI,HOP-92 NSCLC,242 nM
same,GI50,IGROV1 ovarian,162 nM
same,TGI,IGROV1 ovarian,306 nM
same,GI50,RPMI-8226 leukemia,106 nM
same,TGI,RPMI-8226 leukemia,226 nM
same,GI50,OVCAR-5 ovarian,184 nM
same,TGI,OVCAR-5 ovarian,324 nM
same,GI50,MDA-MB-435 melanoma,183 nM
same,TGI,MDA-MB-435 melanoma,323 nM
same,GI50,HOP-62 NSCLC,97.6 nM
same,TGI,HOP-62 NSCLC,216 nM
same,GI50,SNB-19 CNS,189 nM
same,TGI,SNB-19 CNS,332 nM
